Results taken from US6509375B1, “Method for increasing productivity in breeder hens” (Cyncron Corporation, priority 1999, dated 2003).

Assays:
Type in all cases: in vivo
broiler/breeder hens = assay: Egg laying by broiler breeder hens following handling and transfer stress (Example 2); details: for number of eggs laid: ten hens/group, 50 mg/day/kg body weight in food
Experimental: 58 week old broiler/breeder hens were obtained from a commercial private breeder when they were laying at a rate of approximately 54% (54 eggs/day/100 hens; 38 eggs/week/10 hens). […] L-DOPA was added to the feed of the treatment group of breeder hens at a dosage of 50 mg/day/kg body weight; none was added to the feed of the control group. Egg laying was monitored daily for 9 weeks in the treated and control group.

[1] = system: Hubbard broiler/breeder hens; assay: Egg and chick production by broiler/breeder hens fed L-DOPA-supplemented diet (Example 1); details: for Fertility (%): eggs laid that are fertile; for Egg production (%): eggs/day/100 hens, 50 mg/kg body weight in feed; for Hatch/Fertile (%): fertile eggs that hatch / fertile eggs laid; for Chick Production (%): product of egg production, fertility and hatch/fertile percentages
Experimental: 20 Hubbard broiler/breeder hens and 4 roosters at 57 weeks of age were separated into two groups of 10 hens and two roosters. One group was fed a control (untreated) diet and the second group was fed the same diet supplemented with 50 mg/kg body weight of L-DOPA for 10 weeks. This was followed by a 3-4 week rest period and then treatment was initiated for another 3 weeks (retreatment).
(§1) Beginning with week 6 of treatment, eggs from treated hens were incubated and hatched. The progeny were then followed for seven to eight weeks to assess weight gain and feeding efficiency. Egg production percentage is in terms of eggs/day/100 hens. The fertility percentage is the number of eggs laid that are fertile. The hatch/fertile ratio is the number of fertile eggs that hatch divided by the number of fertile eggs laid. The chick production percentage is the product of the egg production, fertility, and hatch/fertile percentages.

[2] = system: progeny chicks of broiler/breeder hens; assay: Feeding efficiency of progeny chicks hatched from eggs of L-DOPA treated breeder hens
Experimental: As used herein, “feeding efficiency” is defined as the ratio of the weight of feed necessary to achieve one weight unit in broiler/breeder hens.
as §1
The progeny chicks hatched from eggs laid by the control and L-DOPA treated breeder hens were evaluated for feeding efficiency, as described above.
Progeny Group 1: 8 week feed conversions; Week […] of treatment in broiler breeders
Progeny Group 2: 8 week feed conversions; Week 7 of treatment in broiler breeders
Progeny Group 3: 8 week feed conversions; Week 8 of treatment in broiler breeders
Progeny Group 4: 7 week feed conversions; Week 9 of treatment in broiler breeders
Progeny Group 5: 6 week feed conversions; Week 10 of treatment in broiler breeders

N[C@@H](Cc1ccc(O)c(O)c1)C(=O)O [L-DOPA, L-Dihydroxyphenylalanine]
number of eggs laid (broiler/breeder hens; Total of weeks 1-9 after handling and transfer stress): 327
recovery time to achieve the same egg laying productivity rate as before the stress (broiler/breeder hens; control hens: two months): one month
total number of eggs laid greater than that of untreated controls (broiler/breeder hens; nine weeks following the moving stress): 31%
number of eggs laid (broiler/breeder hens; week 1 after handling and transfer stress): 10
number of eggs laid (broiler/breeder hens; week 2 after handling and transfer stress): 29
number of eggs laid (broiler/breeder hens; week 3 after handling and transfer stress): 34
number of eggs laid (broiler/breeder hens; week 4 after handling and transfer stress): 41
number of eggs laid (broiler/breeder hens; week 5 after handling and transfer stress): 39
number of eggs laid (broiler/breeder hens; week 6 after handling and transfer stress): 50
number of eggs laid (broiler/breeder hens; week 7 after handling and transfer stress): 41
number of eggs laid (broiler/breeder hens; week 8 after handling and transfer stress): 40
number of eggs laid (broiler/breeder hens; week 9 after handling and transfer stress): 43
average percentage egg production versus control hens ([1]; FIG. 1, over an eight week period): greater
cumulative egg production versus control hens ([1]; FIG. 2, nine week period, L-DOPA-supplemented feed): significantly higher
percentage egg production versus control hens during re-treatment ([1]; FIG. 3, three weeks of re-treatment following three weeks without L-DOPA): increase
average weekly egg production versus control hens ([1]; FIGS. 1 and 2, L-DOPA-supplemented feed 50 mg/kg body weight): significantly higher
higher rates of hatching of fertile eggs over eggs from control hens ([1]; eggs set for incubation during weeks 7, 8 and 10 of treatment): 15%
Fertility (%) ([1]; mean of weeks 7, 8, 10): 92%
Egg production (%) ([1]; mean of weeks 7, 8, 10): 64%
Hatch/Fertile (%) ([1]; mean of weeks 7, 8, 10): 84%
Chick Production (%) ([1]; mean of weeks 7, 8, 10): 51%
Fertility (%) ([1]; week 7 of treatment): 84%
Egg production (%) ([1]; week 7 of treatment): 71%
Hatch/Fertile (%) ([1]; week 7 of treatment): 75%
Chick Production (%) ([1]; week 7 of treatment): 45%
Fertility (%) ([1]; week 8 of treatment): 100%
Egg production (%) ([1]; week 8 of treatment): 58%
Hatch/Fertile (%) ([1]; week 8 of treatment): 90%
Chick Production (%) ([1]; week 8 of treatment): 52%
Fertility (%) ([1]; week 10 of treatment): 92%
Egg production (%) ([1]; week 10 of treatment): 62%
Hatch/Fertile (%) ([1]; week 10 of treatment): 86%
Chick Production (%) ([1]; week 10 of treatment): 55%
overall gain in chick production over the control groups ([1]; weeks 7, 8 and 10 of treatment): 76%
Final feeding efficiency of progeny ([2]; Average of progeny groups 1-5): 2.05 pounds of feed consumed per pound of body weight gained
Final feeding efficiency of progeny ([2]; Progeny Group 1: 8 week feed conversions, Week 8 of treatment in broiler breeders): 1.99 pounds of feed consumed per pound of body weight gained
Final feeding efficiency of progeny ([2]; Progeny Group 2: 8 week feed conversions, Week 7 of treatment in broiler breeders): 2.07 pounds of feed consumed per pound of body weight gained
Final feeding efficiency of progeny ([2]; Progeny Group 3: 8 week feed conversions, Week 8 of treatment in broiler breeders): 1.98 pounds of feed consumed per pound of body weight gained
Final feeding efficiency of progeny ([2]; Progeny Group 4: 7 week feed conversions, Week 9 of treatment in broiler breeders): 2.07 pounds of feed consumed per pound of body weight gained
Final feeding efficiency of progeny ([2]; Progeny Group 5: 6 week feed conversions, Week 10 of treatment in broiler breeders): 2.12 pounds of feed consumed per pound of body weight gained
average increase in feeding efficiency of progeny relative to control birds ([2]; progeny hatched from eggs during weeks 6-10 of treatment): 6%
